Measurements reported in publication PMC10743895, “Synthesis of 1,3,4-Thiadiazole Derivatives and Their Anticancer Evaluation” (International Journal of Molecular Sciences, 2023).
pIC50: −log10 of the molar value. Where two headings read alike, the source gives them in different places.

Legend:
HUVEC normal cells = experiment: MTS cell viability assay, HUVEC normal cells; format: cell-based, human
Description: (§1) To determine the optimal working concentration, dose-effect curves were made for each compound in the range of concentrations between 6.25 and 400 μM.
(§2) LoVo (human colorectal adenocarcinoma) human cancer cell line and HUVEC normal cells were purchased from American Type Culture Collection (ATCC). The MCF-7 human breast adenocarcinoma cell line was provided from European Collection of Authenticated Cell Cultures (ECACC). HUVEC normal cells, isolated from the vascular endothelium of an umbilical cord, were used as a reference. Adherent cells were maintained in culture in Dulbecco’s modified Eagle medium/nutrient mixture F-12 (DMEM:F12) with 2 mM of L-glutamine, 10% fetal bovine serum, 100 units/mL of penicillin and 100 μg/mL of streptomycin, and incubated at 37 °C in a 5% CO2-humidified atmosphere. After 24 h, adherent cells were treated with different concentrations of the compounds for different periods of time. Cis-Pt and DOX, conventional oncology drugs used in cancer treatments, can be used as a positive control of the experiments. […] Then, cells were detached with a nonenzymatic solution of phosphate-buffered saline (PBS)/1 mM EDTA and washed twice in PBS.
(§3) The study utilized a colorimetric assay based on MTS (chemically known as 3-(4,5-dimethylthiazol-2-yl)-5-(3-carboxymethoxyphenyl)-2-(4-sulfophenyl)-2H-tetrazolium) and called CellTiter 96 Aqueous One Solution Cell proliferation Assay (Promega, Madison, WI, USA) in order to measure cell viability. The assay was performed in triplicate in 96-well microtiter plates with a flat bottom (Falcon). A number of 1 × 10^4 cells/well were cultured in 100 μL for 24 h, culture supernatants were discarded, and then cells were treated for 24 and 48 h with increasing concentrations of the tested compound. After the end of the incubation time, 20 μL of the reagent containing MTS and PES (phenazine ethosulfate) was added in each well. Plates were incubated for 4 h at 37 °C, with mild agitation every 15 min. The reduction in the tetrazolium compound to formazan was spectrophotometrically measured at λ = 492 nm using a Dynex plate reader (DYNEX Technologies MRS, Chantilly, VA, USA). The percentage of viability compared to untreated cells (considered 100% viable) was calculated with the formula:(1) Cell viability (%)=Absorbance treated cells−Absorbance culture medium/Absorbance untreated cells−Absorbance culture medium×100
(§4) The cell viability compared was calculated and data were expressed as a mean ± standard deviation (SD) of the experiments and obtained in triplicate (n = 3).

HUVEC cells = experiment: Apoptosis assay (Annexin V-FITC/PI flow cytometry), HUVEC; format: cell-based, human
Description: (§5) Two reference concentrations, 5 μM and 50 μM, and two distinct treatment durations, 24 and 48 h, were employed to assess the influence of the test compounds on apoptosis in both normal and tumor cells. […] HUVEC cells were exposed to both drugs.
(§6) The apoptosis assay was performed according to the manufacturer’s instructions using the Annexin V-FITC kit (BD Biosciences, San Jose, CA, USA). Cells untreated and treated with the experimental compound were suspended in a cold binding buffer. The percentages of apoptotic cells were determined by double staining with Annexin V-FITC/PI. In each tube was added 400 μL of Annexin V binding buffer and the 5000 cells/sample for 15 min in the dark at room temperature. The cells were analyzed using a FACSCantoII flow-cytometer (Becton Dickinson—BD, La Jolla, CA, USA). The analysis was performed using DIVA 6.2 software to discriminate viable cells (FITC-PI-) from necrotic cells (FITC + PI+), and early apoptosis (FITC + PI) from late apoptosis.

LoVo cells [1] = experiment: MTS cell viability assay, LoVo cells; format: cell-based, human
Description: as §1, §2, §3, §4

MCF-7 cells [2] = experiment: Apoptosis assay (Annexin V-FITC/PI flow cytometry), MCF-7; format: cell-based, human
Description: as §5, §6

LoVo cells [3] = experiment: Apoptosis assay (Annexin V-FITC/PI flow cytometry), LoVo; format: cell-based, human
Description: as §5, §6

Daphnia magna = Daphnia magna toxicity assay; format: in vivo; conditions: for Maximum Average L% (lethality): up to 200 µM
Description: (§7) The Daphnia magna bioassay results are presented in Table 3 as the maximum average percentage of lethality (L%) registered for each compound and the median lethal concentration (LC50) if the values permitted its calculation.
(§8) Daphnia magna Straus is parthenogenetically maintained at ‘Carol Davila’ University’s Department of Pharmaceutical Botany and Cell Biology. The culture was consistently maintained at a temperature of 25 °C, with a 16-h light and 8-h dark photoperiod. To ensure consistency, young daphnids were carefully chosen based on their size and kept in an artificial medium for 24 h prior to the assessment. The bioassay involved 10 daphnids per replicate, using tissue culture plates with 12 wells from Greiner Bio-One. The experimental procedure followed the protocol described in previous studies.
(§9) Each determination was carried out in duplicate.

MCF-7 cells [4] = experiment: MTS cell viability assay, MCF-7 cells; format: cell-based, human; conditions: for pIC50: Homo sapiens
Description: as §1, §2, §3, §4

[5] = Daphnia magna toxicity assay; format: in vivo; conditions: Daphnia magna, in vivo; 48 h
Description: as §7, §8, §9

[6] = Homo sapiens, HUVEC, read-out: IC50 (48 h) HUVEC, 48 h exposure
[7] = Homo sapiens, HUVEC, 24 h exposure, read-out: IC50 (24 h) HUVEC
[8] = Homo sapiens, LoVo, read-out: IC50 (48 h) LoVo, 48 h exposure
[9] = Homo sapiens, LoVo, 24 h exposure, read-out: IC50 (24 h) LoVo
[10] = MCF7, read-out: IC50 (48 h) MCF-7, 48 h exposure
[11] = MCF7, 24 h exposure, read-out: IC50 (24 h) MCF-7

Row | pIC50 (LoVo cells [1]; [8]) | pIC50 (LoVo cells [1]; [9]) | pIC50 (MCF-7 cells [4]; [10]) | pIC50 (MCF-7 cells [4]; [11]) | Structure (SMILES) | pIC50 (HUVEC normal cells; [6]) | pIC50 (HUVEC normal cells; [7]) | Total Apoptosis (%) 24 h HUVEC (HUVEC cells; 5 μM) [%] | Total Apoptosis (%) 48 h HUVEC (HUVEC cells; 5 μM) [%] | Total Apoptosis (%) 24 h HUVEC (HUVEC cells; 50 μM) [%] | Total Apoptosis (%) 48 h HUVEC (HUVEC cells; 50 μM) [%] | Total Apoptosis (%) 24 h MCF-7 (MCF-7 cells [2]; 5 μM) [%] | Total Apoptosis (%) 48 h MCF-7 (MCF-7 cells [2]; 5 μM) [%] | Total Apoptosis (%) 24 h MCF-7 (MCF-7 cells [2]; 50 μM) [%] | Total Apoptosis (%) 48 h MCF-7 (MCF-7 cells [2]; 50 μM) [%] | Total Apoptosis (%) 24 h LoVo (LoVo cells [3]; 5 μM) [%] | Total Apoptosis (%) 48 h LoVo (LoVo cells [3]; 5 μM) [%] | Total Apoptosis (%) 24 h LoVo (LoVo cells [3]; 50 μM) [%] | Total Apoptosis (%) 48 h LoVo (LoVo cells [3]; 50 μM) [%] | Maximum Average L% (lethality) (Daphnia magna; 24 h) [%] | Maximum Average L% (lethality) (Daphnia magna; 48 h) [%] | also measured
1 | 4.21 | 3.69 | < 3.40 | < 3.40 | Nc1nnc(-c2ccccc2)s1 [2a, 5-Phenyl-1,3,4-thiadiazol-2-amine] | 4.08 | < 3.40 | 12.8 | 14.7 | 15.0 | 18.4 | 11.8 | 24.4 | 9.8 | 24.7 | 9.0 | 17.6 | 8.9 | 13.7 | 0 | 40 | –
2 | 3.90 | 3.87 | < 3.40 | < 3.40 | Cc1ccc(-c2nnc(N)s2)cc1 [2b, 5-(4-Methylphenyl)-1,3,4-thiadiazol-2-amine] | 4.15 | < 3.40 | 16.7 | 15.7 | 13.6 | 16.6 | 8.0 | 16.7 | 8.4 | 25.4 | 6.9 | 14.0 | 6.3 | 12.3 | 10 | 55 | LC50 at 48 h [5]: 144 µM
3 | 3.93 | 3.79 | 3.40 | < 3.40 | Nc1nnc(-c2ccc(O)c(O)c2)s1 [2c, 5-(3,4-Dihydroxyphenyl)-1,3,4-thiadiazol-2-amine] | 3.81 | < 3.40 | 16.6 | 15.6 | 12.1 | 12.1 | 11.7 | 26.6 | 7.6 | 15.1 | 7.5 | 13.0 | 6.8 | 13.8 | 0 | 25 | viability of MCF-7 cells (MCF-7 cells [4]; 48-h period): less than 50%
4 | 4.10 | 3.97 | < 3.40 | < 3.40 | COc1cc(-c2nnc(N)s2)cc(OC)c1OC [2e, 5-(3,4,5-Trimethoxyphenyl)-1,3,4-thiadiazol-2-amine] | 3.52 | < 3.40 | 26.3 | 13.1 | 24.3 | 15.5 | 9.1 | 24.6 | 14.9 | 34.2 | 4.9 | 14.3 | 16.4 | 19.9 | 0 | 5 | –
5 | 4.09 | < 3.40 | < 3.40 | < 3.40 | Nc1nnc(-c2ccccc2CSc2ccccc2)s1 [2f, 5-[2-(Phenylthiomethyl)phenyl]-1,3,4-thiadiazol-2-amine] | < 3.40 | < 3.40 | 19.9 | 15.9 | 18.6 | 14.6 | 22.0 | 44.0 | 12.6 | 45.0 | 14.9 | 27.0 | 8.2 | 17.4 | 5 | 10 | –
6 | 5.61 | 4.74 | 4.63 | 4.36 | Nc1nnc(-c2ccccc2CS(=O)(=O)c2ccccc2)s1 [2g, 5-[2-(Benzenesulfonylmethyl)phenyl]-1,3,4-thiadiazol-2-amine] | 4.35 | < 3.40 | 19.0 | 14.7 | 19.3 | 14.1 | 18.7 | 42.2 | 19.7 | 44.5 | 13.6 | 23.6 | 19.6 | 24.8 | 0 | 20 | lethality percentages in the Daphnia test (Daphnia magna; even at the highest concentration of 200 µM): below 20%
7 | – | – | – | – | N.N.[Cl][Pt][Cl] [Cis-Pt, Cisplatin, reference compound] | – | – | 15.7 | 14.8 | 21.7 | 17.4 | – | – | – | – | 15.7 | 31.6 | 24.5 | 38.7 | – | – | pIC50 (HUVEC normal cells; 24 h exposure, read-out: IC50 (24 h) HUVEC): 4.95; pIC50 (HUVEC normal cells; read-out: IC50 (48 h) HUVEC, 48 h exposure): 5.08; pIC50 (LoVo cells [1]; 24 h exposure, read-out: IC50 (24 h) LoVo): 4.89; pIC50 (LoVo cells [1]; read-out: IC50 (48 h) LoVo, 48 h exposure): 4.10
8 | – | – | 4.06 | 3.89 | COc1cccc2c1C(=O)c1c(O)c3c(c(O)c1C2=O)C[C@@](O)(C(=O)CO)C[C@@H]3O[C@H]1C[C@H](N)[C@H](O)[C@H](C)O1 [DOX, Doxorubicin, reference compound] | 5.87 | 5.99 | 15.2 | 9.5 | 18.6 | – | – | 33.6 | 19.0 | 49.0 | – | – | – | – | – | – | –
